Reference: the supplement of paper PMC11451515

Tested on: NOMO1
Assay: cell viability relative to DMSO control; higher = less cytotoxic
Conditions: 48 h
Summary of the method: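 Viability values are per-plate percentages of DMSO wells, with background from cell-free wells. Library compounds in DMSO were pin-dosed, in an 11-point threefold series from 47 μM to 0.79 nM, onto NOMO1 or SEM (500 cells/well) or P12-Ichikawa (1000 cells/well) leukemia cells in 1536-well plates (5 μl). Those cells had been adapted for at least four passages in each medium, and CellTiter-Glo One luminescence was read after 48 h at 37°C.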

[1] = RPMI 5 mM glucose + 10% FBS, 0.000781 µM
[2] = RPMI 5 mM glucose + 10% FBS, 0.00234 µM
[3] = RPMI 5 mM glucose + 10% FBS, 0.00702 µM
[4] = RPMI 5 mM glucose + 10% FBS, 0.0211 µM
[5] = RPMI 5 mM glucose + 10% FBS, 0.0632 µM
[6] = RPMI 5 mM glucose + 10% FBS, 0.19 µM
[7] = RPMI 5 mM glucose + 10% FBS, 0.569 µM
[8] = RPMI 5 mM glucose + 10% FBS, 1.71 µM
[9] = RPMI 5 mM glucose + 10% FBS, 5.12 µM
[10] = RPMI 5 mM glucose + 10% FBS, 15.4 µM
[11] = RPMI 5 mM glucose + 10% FBS, 46.1 µM
[12] = RPMI 5 mM glucose + 10% dialyzed FBS, 0.000781 µM
[13] = RPMI 5 mM glucose + 10% dialyzed FBS, 0.00234 µM
[14] = RPMI 5 mM glucose + 10% dialyzed FBS, 0.00702 µM
[15] = RPMI 5 mM glucose + 10% dialyzed FBS, 0.0211 µM
[16] = RPMI 5 mM glucose + 10% dialyzed FBS, 0.0632 µM
[17] = RPMI 5 mM glucose + 10% dialyzed FBS, 0.19 µM
[18] = RPMI 5 mM glucose + 10% dialyzed FBS, 0.569 µM
[19] = RPMI 5 mM glucose + 10% dialyzed FBS, 1.71 µM
[20] = RPMI 5 mM glucose + 10% dialyzed FBS, 5.12 µM
[21] = RPMI 5 mM glucose + 10% dialyzed FBS, 15.4 µM
[22] = RPMI 5 mM glucose + 10% dialyzed FBS, 46.1 µM
[23] = HPLM + 10% dialyzed FBS, 0.000781 µM
[24] = HPLM + 10% dialyzed FBS, 0.00234 µM
[25] = HPLM + 10% dialyzed FBS, 0.00702 µM
[26] = HPLM + 10% dialyzed FBS, 0.0211 µM
[27] = HPLM + 10% dialyzed FBS, 0.0632 µM
[28] = HPLM + 10% dialyzed FBS, 0.19 µM
[29] = HPLM + 10% dialyzed FBS, 0.569 µM
[30] = HPLM + 10% dialyzed FBS, 1.71 µM
[31] = HPLM + 10% dialyzed FBS, 5.12 µM
[32] = HPLM + 10% dialyzed FBS, 15.4 µM
[33] = HPLM + 10% dialyzed FBS, 46.1 µM

Compound	cell viability [1] [%]	cell viability [2] [%]	cell viability [3] [%]	cell viability [4] [%]	cell viability [5] [%]	cell viability [6] [%]	cell viability [7] [%]	cell viability [8] [%]	cell viability [9] [%]	cell viability [10] [%]	cell viability [11] [%]	cell viability [12] [%]	cell viability [13] [%]	cell viability [14] [%]	cell viability [15] [%]	cell viability [16] [%]	cell viability [17] [%]	cell viability [18] [%]	cell viability [19] [%]	cell viability [20] [%]	cell viability [21] [%]	cell viability [22] [%]	cell viability [23] [%]	cell viability [24] [%]	cell viability [25] [%]	cell viability [26] [%]	cell viability [27] [%]	cell viability [28] [%]	cell viability [29] [%]	cell viability [30] [%]	cell viability [31] [%]	cell viability [32] [%]	cell viability [33] [%]
C[S+](=O)([O-])c1cccc(CNc2nc(Nc3ccc4c(c3)CCC(=O)N4)ncc2C(F)(F)F)c1	99.6	113	116	115	108	114	113	100	93.3	91.6	53.9	107	109	114	129	99.9	115	105	111	108	86.1	58.9	–	–	–	–	–	–	–	–	–	–	–
CC(C)C[C@H](NC(=O)CNC(=O)c1cc(Cl)ccc1Cl)B(O)O	81.1	88.8	100	16.8	104	86.2	19.7	7.24	5.18	4.14	2.67	98.5	94.2	108	33.5	96.9	107	28.3	8.85	5.16	4.61	2.91	88.3	104	106	33.1	125	92	20.4	9.39	4.5	4.57	4.02
C[C@]12CC[C@H]3[C@@H](C\C=C/4C[C@@H](O)CC[C@]34C)[C@@H]1CCC2=O	116	126	116	104	116	105	121	112	117	103	98	120	108	115	119	118	106	114	108	103	109	106	115	134	117	121	147	117	111	110	103	110	84.7
CCC\C1=C\C(=O)NC(=S)N1	101	113	123	123	114	109	116	119	111	29.4	20.9	103	122	115	118	109	109	113	123	99.7	100	31.7	81.7	104	112	131	113	126	121	133	72.3	35	25.8
OC(=O)C(CC/1=C/C(=O)NC2=CC=CC=C12)NC(=O)C3=CC=C(Cl)C=C3 (configuration not stated)	121	122	121	134	132	127	140	155	137	135	134	114	125	147	127	139	137	136	135	134	132	143	95.6	117	136	121	130	121	131	122	131	136	110
[O-]C(=O)C1=C(C(=C(Cl)C(=C1Cl)Cl)Cl)C/2=C/3\C=C(I)/C(=O)/C(=C3OC4=C2C=C(I)C(=C4I)[O-])I	–	–	–	–	–	–	–	–	–	–	–	–	–	–	–	–	–	–	–	–	–	–	101	136	116	122	140	129	143	133	130	113	102
CN1CCN2c3ncccc3Cc3ccccc3C2C1 (configuration not stated)	101	105	110	112	103	103	116	110	29.5	98.8	112	–	–	–	–	–	–	–	–	–	–	–	121	112	141	118	138	114	123	135	33.4	98.9	108
CN1CCC[C@@H]1CCO[C@](C)(c1ccccc1)c1ccc(Cl)cc1	100	105	101	110	107	105	100	109	114	115	103	93.3	112	105	97.2	117	108	104	102	104	112	87.8	96	112	95.7	102	112	109	119	107	110	112	95.2
NCCCCNCCCN	108	99.6	98.2	104	99.4	104	94.8	99.1	105	103	27.7	107	104	111	107	107	105	110	115	119	109	35.4	110	101	119	112	109	95.3	116	121	105	67.1	26.7
CC[C@@]1(O)C(=O)OC\C2=C1\C=C\3N(CC4=C3N=C5C=CC=CC5=C4)C2=O	117	106	120	106	77.5	22.3	20.8	20.4	11.9	16.7	17.9	126	110	121	103	76.5	28.9	28.6	27.5	21.9	22.4	14	122	115	145	120	80.4	30.3	30.7	28.6	21.1	14.9	25.7
COc1ccc2c(c1)c(CC(=O)OCC(=O)O)c(C)n2C(=O)c1ccc(Cl)cc1	–	–	–	–	–	–	–	–	–	–	–	112	137	110	142	117	133	120	135	115	123	106	123	131	122	136	117	131	128	114	123	120	123
Nc1nnc(-c2cccc(Cl)c2Cl)c(N)n1	89.2	86.6	93.5	23.7	112	96.5	88.4	96.1	102	95.2	102	76	89.2	94	43.7	96.2	93.1	99	108	103	98.6	99.1	95.9	89.7	97.6	33	107	113	112	98.9	121	108	115
Cn1c(=O)n(-c2ccc(C(C)(C)C#N)cc2)c2c3cc(-c4cnc5ccccc5c4)ccc3ncc21	103	114	104	102	106	99.9	89.8	52.4	28.7	19.8	27.1	102	120	111	112	94.9	73.4	66.4	49.3	33.7	22.6	30.5	99.4	99.2	105	97.5	91.2	89.2	61.1	37.4	41.9	33.9	32.2
Nc1cccc2c1CN([C@H]1CCC(=O)NC1=O)C2=O	125	118	124	123	112	114	98.3	105	99.7	82.1	112	101	111	120	104	114	108	107	109	103	88.4	107	–	–	–	–	–	–	–	–	–	–	–
COc1ccc(Nc2nccc(NCCO)n2)cc1	72.7	86.4	73.6	83.5	79.6	79.8	79.6	79	15.8	81.3	91.8	61.9	63.7	69.4	73.9	73.8	76.9	68.9	75.5	23.6	76.9	76.2	75.3	86.5	84.9	97.5	86	96.7	88.8	99.5	74.5	84.9	22.7
COc1cc2nc(-c3cc(F)ccc3O)nc(N[C@@H]3CNC[C@H]3C(C)(C)O)c2cc1OC	107	105	108	103	101	115	109	122	114	106	49.4	101	97.8	100	118	106	112	112	96.6	99.6	88.4	53.7	111	115	108	128	93.5	122	124	109	109	89.4	38.4
